Laboratory results from US20230058412A1, “Carbohydrate-Modified Particles and Particulate Formulations for Modulating an Immune Response” (NORTHWESTERN UNIVERSITY, priority 2015, published 2023).

Tests used:
[1] = biological target: T1, Mer (Homo sapiens, UniProt Q12866); details: exogenous ligand; cited from earlier work
T1 sequence (Q12866 21-999): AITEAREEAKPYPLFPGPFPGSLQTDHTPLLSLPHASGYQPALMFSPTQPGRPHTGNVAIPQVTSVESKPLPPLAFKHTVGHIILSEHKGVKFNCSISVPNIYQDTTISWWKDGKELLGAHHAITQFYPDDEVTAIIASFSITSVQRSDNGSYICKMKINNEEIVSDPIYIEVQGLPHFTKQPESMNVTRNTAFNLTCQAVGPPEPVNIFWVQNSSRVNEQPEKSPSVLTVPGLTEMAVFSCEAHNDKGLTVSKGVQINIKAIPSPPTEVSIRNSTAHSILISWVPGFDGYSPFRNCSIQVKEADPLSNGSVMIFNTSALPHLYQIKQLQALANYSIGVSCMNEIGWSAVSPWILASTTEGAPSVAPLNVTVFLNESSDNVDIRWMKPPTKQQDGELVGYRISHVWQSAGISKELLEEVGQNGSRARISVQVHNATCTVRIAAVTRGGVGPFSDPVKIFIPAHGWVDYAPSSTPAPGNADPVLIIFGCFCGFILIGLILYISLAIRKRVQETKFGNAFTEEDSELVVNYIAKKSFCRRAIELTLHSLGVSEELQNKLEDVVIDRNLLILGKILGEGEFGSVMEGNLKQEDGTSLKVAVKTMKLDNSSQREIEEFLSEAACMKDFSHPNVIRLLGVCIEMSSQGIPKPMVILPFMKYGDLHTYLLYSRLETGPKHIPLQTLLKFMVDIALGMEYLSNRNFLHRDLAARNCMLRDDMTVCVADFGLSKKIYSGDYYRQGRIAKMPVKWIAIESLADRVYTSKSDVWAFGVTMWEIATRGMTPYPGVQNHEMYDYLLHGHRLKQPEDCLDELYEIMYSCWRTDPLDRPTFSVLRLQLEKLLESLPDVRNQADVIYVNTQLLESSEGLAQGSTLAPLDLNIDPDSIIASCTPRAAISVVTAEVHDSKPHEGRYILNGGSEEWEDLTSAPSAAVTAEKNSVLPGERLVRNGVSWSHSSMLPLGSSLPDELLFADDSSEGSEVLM

[2] = tested on: RAW 264.7 macrophage; details: cited from earlier work
[3] = biological target: T2, CD209 (Homo sapiens, UniProt Q9NNX6); details: cited from earlier work
T2 sequence (Q9NNX6 1-404): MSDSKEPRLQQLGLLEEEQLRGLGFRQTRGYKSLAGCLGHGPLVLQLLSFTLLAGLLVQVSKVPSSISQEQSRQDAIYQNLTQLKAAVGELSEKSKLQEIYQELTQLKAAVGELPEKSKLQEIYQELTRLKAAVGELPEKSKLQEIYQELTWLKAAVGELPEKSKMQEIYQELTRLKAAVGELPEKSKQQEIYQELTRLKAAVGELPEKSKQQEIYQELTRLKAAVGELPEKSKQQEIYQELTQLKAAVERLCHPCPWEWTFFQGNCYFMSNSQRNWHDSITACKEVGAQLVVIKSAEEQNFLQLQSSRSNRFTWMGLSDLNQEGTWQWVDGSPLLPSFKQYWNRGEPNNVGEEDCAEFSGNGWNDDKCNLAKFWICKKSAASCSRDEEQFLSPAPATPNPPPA

[4] = tested on: allograft; details: in vivo; cited from earlier work
[5] = tested on: RAW264.7 cells; test: High-throughput screen of cytokine production by LPS-stimulated RAW264.7 macrophages; type: cell-based
Source text: Since macrophages are one immune cell thought to be important in immune responses, including tolerance through their production of a key immune mediator called Interleukin-10 (IL-10), we developed an in vitro approach to screening the effects of EDC-cells versus PLGA nanoparticles for their effects on IL-10 production.
We examined the proinflammatory response (IL-6) or anti-inflammatory response (IL-10), as outlined in FIG. 2.
Using the strategy in FIG. 2, we calculated the greatest fold change for cytokine production over a therapeutically relevant dose curve of 0.1, 1, 10, and 100 μM.
Using activated RAW macrophages we developed a high throughput screening method to identify tolerogenic signals.
In support of our overarching concept that ECDI-fixed NPs are lacking signals for induction of tolerogenic signals, we have examined the ability to modulate cytokine responses in a macrophage cell line (RAW264.7).

[6] = macrophages stimulated with LPS

## Protein S: cognate ligand for TAM RTKs
[1]
  tyrosine autophosphorylation / signalling of Mer: only capable of signaling through Mer

## CCCCCC(=O)CC(=O)/C=C/c1ccc(O)c(OC)c1 [6-dehydrogingerdione]
[2]
  inflammatory response (decrease of pro-inflammatory cytokines, increase in IL-10/TGF13): inhibit this inflammatory response

## GAS6: Growth Arrest-Specific 6, cognate ligand for TAM RTKs
[1]
  tyrosine autophosphorylation / signalling of Mer: stimulate tyrosine autophosphorylation of both Mer and Ax1

## CC(=O)N[C@H]1[C@H](O[C@H]2[C@@H](O)[C@@H](CO)O[C@@H](O[C@H]3[C@H](O)[C@@H](O)C(O)O[C@@H]3CO)[C@@H]2O)O[C@H](CO)[C@@H](O[C@@H]2O[C@H](CO)[C@H](O)[C@H](O)[C@H]2O)[C@@H]1O[C@@H]1O[C@@H](C)[C@@H](O)[C@@H](O)[C@@H]1O (some centres unmarked) [LNFPIII, Lacto-N-fuconentaose III]
[3]
  binding and signalling through CD209: binds and signals through CD209
[4]
  allograft survival: prolong allograft survival

## C[C@H](O)[C@@H](O)[C@@H](O)[C@H](O)C=O [Fucose, L-Fucose]
[5]; macrophages activated with LPS, with or without ECDI-SP, dose curve 0.1, 1, 10, 100 μM
  tolerogenic signal (increase IL-10 secretion and/or decrease IL-6 secretion versus baseline): exhibiting a tolerogenic signal

## CC(=O)N[C@H]1C(O)O[C@H](CO)[C@@H](O[C@@H]2O[C@H](CO)[C@H](O)[C@H](O)[C@H]2O)[C@@H]1O[C@@H]1O[C@@H](C)[C@@H](O)[C@@H](O)[C@@H]1O (some centres unmarked) [Lewis^x antigen]
[5]; [6]
  IL-6 production: suppression of IL-6 production
  IL-10 production: enhancement of IL-10

## Nc1ncnc2c1ncn2[C@@H]1O[C@H](CO)[C@@H](O)[C@H]1O [adenosine]
[2]
  inflammatory response (decrease of pro-inflammatory cytokines, increase in IL-10/TGF13): inhibit this inflammatory response

## C[C@H]1O[C@@H](O[C@H]2CC[C@@]3(C)[C@@H](CC[C@]4(C)[C@@H]3C=C[C@]35OC[C@@]6(CCC(C)(C)C[C@H]63)[C@@H](O)C[C@]54C)[C@]2(C)CO)[C@H](O)[C@@H](O[C@@H]2O[C@H](CO)[C@@H](O)[C@H](O)[C@H]2O)[C@H]1O [saikosaponin A]
[2]
  inflammatory response (decrease of pro-inflammatory cytokines, increase in IL-10/TGF13): inhibit this inflammatory response

## C[C@H]1CC[C@@H]2N(C1)C[C@H]1[C@@H]3C[C@H]4[C@@H](C[C@H](O)[C@H]5C[C@@H](O)CC[C@@]54C)[C@@H]3CC[C@@H]1[C@]2(C)O [peimine]
[2]
  inflammatory response (decrease of pro-inflammatory cytokines, increase in IL-10/TGF13): inhibit this inflammatory response
